Measured values as given in US20230263801A1, “COMBINATION THERAPY OF PARP INHIBITORS” (IMPACT THERAPEUTICS (SHANGHAI), INC, priority 2020, published 2023).
Where two headings read alike, the source gives them in different places. Marks after values point to notes of the source that are not given here.

Key:
BRCA mutant animal model = conditions: cited from earlier work
[1] = tested on: human small cell lung cancer NCI-H209 cells; assay: CCK-8 growth inhibition of NCI-H209 cells, IMP4297 alone and combined with TMZ; type: cell-based; conditions: NCI-H209, 120 h
Experimental: The CCK-8 detection method was used to determine the inhibitory effect of IMP4297 combined with TMZ on the growth of human small cell lung cancer NCI-H209 cells. The resuscitated human small cell lung cancer NCI-H209 cells were inoculated into a culture dish, experimental medium (RPMI1640+20% FBS) was added, and the culture dish was incubated at 37° C. and 5% CO2 in an incubator. Cells with good growth and suitable confluence were selected for the experiment, and centrifiged at 800 rpm for 5 min. The supernatant was discarded. The cells were resuspended with fresh medium and inoculated into a 96-well cell culture plate at a suitable cell density. 190 μL of cell suspension liquid was inoculated into each well. The test compound (including IMP4297, TMZ and reference compound AZD2281) was serially diluted with DMSO at a ratio of 1:3 and 1:10 to 10 concentrations (the last concentration is the DMSO negative control). 5 μL of each concentration was added to 120 μL of media (25 times dilution). The mixture was mixed well by shaking. Separate medication: 5 μL of the diluted medium containing the corresponding concentration of the compound and 5 μL of the medium were added respectively, combined medication. 5 μL of the diluted medium containing the corresponding concentration of the compound and 5 μL of the medium containing the final concentration of 50 μM of TMZ were added respectively. The final concentration of DMSO is […]. The culture plate was then incubated at 37° C. and 5% CO2 in an incubator for 5 days. 20 μL of CCK-8 detection reagent was added to each well, and the culture was continued for 2 hours. The culture plate was then shaked for 10 minutes and placed on a multi-function reader to measure the absorbance value (OD value) using the wavelength of 450/65011m. Graph Pad Prism 6.0 was used to analyze the data. The inhibitory effects of compounds on cell proliferation were plotted based on cell viability and the logarithm of compound concentration. Cell viability % (nM) ODcompound/ODDMSO×100. […] The combination index was calculated using CalcuSyn software. […]

recurrent glioblastoma = conditions: patients with recurrent glioblastoma; cited from earlier work
[2] = tested on: NCI-H209 human small cell lung cancer xenograft tumor; assay: In vivo efficacy of IMP4297 combined with TMZ in NCI-H209 xenograft tumor model; parameters: species or system nude mice; conditions: for body weight reduction during the experiment: single agent-treated groups (TMZ 3 mg/kg; IMP4297 10 mg/kg)
Experimental: The anti-tumor efficacy of the compound IMP4297 combined with TMZ was evaluated in the NCI-H209 human small cell lung cancer xenograft tumor model in nude mice. For this purpose, human small cell lung cancer NCI-H209 cells were inoculated into the subcutaneous breast area of the right axilla of nude mice. The cell inoculation amount was 2×10^6 logarithmic growth phase cells. The inoculated mice were used after transplanted tumors were formed. Vigorously growing tumor tissues were cut into small pieces of 1×1×1 mm^3, and inoculated under the skin of the breast area of the right axilla of each BALB/c nude mouse. When the average tumor volume reached about 124.08 (57.16-280.79) mm^3, nude mice were randomly grouped according to the tumor volume and were administered the drugs.
After grouping and drug treatment start, the weight of nude mice was weighed twice a week and recorded. Weight change (%)=(Wt−W1)/W1×100%, wherein W1 is the body weight measured at the time of grouping administration (i.e D1), and Wt is the weight of the recording day. Weight change (%) is a measure of treatment-related toxicity (when average weight loss exceeded 15%, treatment was stopped or the schedule was adjusted until recovery; when average weight loss exceeded 20%, the experiment was terminated). The tumor diameter (length and width) was measured twice a week with a vernier caliper. The tumor volume (length×width^2/2) and the relative tumor volume RTV=Vt/V1 were calculated, wherein V1 is the tumor volume at the time of grouping administration (i.e. D1), and Vt is the tumor volume at each measurement. […] TGM(%)=[(CVt−CV1)−(TVt−TV1)]/(CVt−CV1)×100%, wherein […] is the tumor volume on the recording day of the vehicle control group, […] is the tumor volume of the vehicle control group at the time of grouping administration, TVt is the tumor volume of the drug administration group on the recording day, and TV1 is the tumor volume of the drug administration group at the time of grouping administration.
After the experiment, 3 nude mice were randomly selected from each group, and 300 μL of whole blood was collected from the orbit and placed in a BD K2EDTA anticoagulant tube (REF367841) for routine blood testing.
GraphPad Prism 6.0 software two-way ANOVA was used to compare the mean tumor volume and relative tumor volume between groups. Compared with the control group (vehicle), *p<0.05 (statistical difference), **p<0.01 (significant statistical difference), ***p<0.001 (very significant statistical difference); compared with the TMZ group, ^#p<0.05 (statistical difference), ^##p<0.01 (significant statistical difference), ^###p<0.001 (very significant statistical difference); compared with the IMP4297 group, ^+p<0.05 (statistical difference), ^++p<0.01 (significant statistical difference), ^+++p<0.001 (very significant statistical difference).

[3] = tested on: animal model with BRCA mutation; assay: IMP4297 single agent efficacy in animal model with BRCA mutation; type: in vivo; conditions: 2.5-20 mg/kg QD in mice
cancer [4] = assay: Clinical studies of IMP4297 as a single agent in patients with cancer (ESMO 2020 abstracts); type: in vivo; conditions: 20-120 mg QD in human
[5] = tested on: animal model with BRCA mutation; conditions: cited from earlier work
cancer [6] = conditions: QD continuously, cited from earlier work
PARP1 [7] = target: T1, PARP1 (Homo sapiens, UniProt P09874); assay: PARP1 trapping in HCT116 cells treated with TMZ (Western blot of chromatin-bound proteins, ImageJ); type: cell-based; parameters: endogenous in cells; host or cells: HCT116; conditions: for grey density value of PARP1 band: 4 hours, HCT116
Experimental: Colorectal carcinoma HCT116 cells were used in the experiment Cells in exponential growth phase were trypsinized and seeded to 10 cm cell culture plate at a density about 10-20% confluency After two days when cell density reached 70-80%, the cell culture was replaced with fresh medium containing vehicle, 0.1 μM or 10 μM of IMP4297 either in the presence or absence of 1 mM TMZ. Cells were treated for 4 hours. Chromatin-bound proteins were extracted according to the “Subcellular Protein Fractionation Kit for Cultured Cells (Thermo, LOT78840)” protocol.
PARP trapping was detected using SDS-PAGE electrophoresis followed by Western blot Extracted chromatin-bound protein samples were mixed with 5×SDS-PAGE solution and heated for 5 min at 100° C. Equal amount (25-30 μg) of protein was loaded to each lane on a pre-made SDS-PAGE gel (Genscript SurePAGE™, Bis-Tris, 4-20%, 15 wells M00657). Anti-PARP1 antibody (ABCAM ab227244) used in the study was 1:1000 diluted, anti-Histone 113 antibody (ABCAM ab1791) was 1.5000 diluted and anti-rabbit IgG HRP-linked Antibody (CST 7074s) was 1:2000 diluted. The bands were detected by standard Western blot protocol.

PARP1 [8] = target: T1, PARP1; assay: PARP1 trapping in DU145 cells treated with MMS (Western blot of nuclear chromosomal fraction, ImageJ); type: cell-based; parameters: the nuclear chromosomal component was extracted according to subcellular protein fractionation kit instructions; endogenous in cells; host or cells: DU145; conditions: for grey density value of PARP1 band: MMS 0.01%, 4 hours
Experimental: Human prostate cancer DU145 cells were used in the experiment. On the first day, cells were seeded to 10 cm cell culture dishes and kept in an incubator overnight. […] The plates were swirled, and the cells were kept in an incubator at 37° C., 5% CO2 for 4 hours. Totally 12 samples were prepared and tested. After incubation, the nuclear chromosomal component was extracted according to subcellular protein fractionation kit instructions. Protein concentration was measured by Pierce® BCA Protein Assay Kit (Thermo) and protein was ready for western blot assay. 10 μg protein was loaded into each well of bolt gels, then wet transfer was performed, and the membrane was incubated overnight at 4° C. with anti-PARP antibody (Santa Cruz Biotechnology) with 1.500 dilution and 1:25000 dilution of anti-H3 antibody, respectively. The membrane was washed the next day with TBST 3 times, 5 minutes/time, then incubated with Goat anti-rabbit IgG-HRP (Santa Cruz Biotechnology) in a 1:4000 dilution for 1 hour at room temperature. ECL Prime Western Blotting Det kit (GE) was used to develop the target on the membrane.

[9] = separate medication, 5 days, CCK-8, read-out: IC50, proliferation of NCI-H209 cells

T1 sequence (P09874 whole entry): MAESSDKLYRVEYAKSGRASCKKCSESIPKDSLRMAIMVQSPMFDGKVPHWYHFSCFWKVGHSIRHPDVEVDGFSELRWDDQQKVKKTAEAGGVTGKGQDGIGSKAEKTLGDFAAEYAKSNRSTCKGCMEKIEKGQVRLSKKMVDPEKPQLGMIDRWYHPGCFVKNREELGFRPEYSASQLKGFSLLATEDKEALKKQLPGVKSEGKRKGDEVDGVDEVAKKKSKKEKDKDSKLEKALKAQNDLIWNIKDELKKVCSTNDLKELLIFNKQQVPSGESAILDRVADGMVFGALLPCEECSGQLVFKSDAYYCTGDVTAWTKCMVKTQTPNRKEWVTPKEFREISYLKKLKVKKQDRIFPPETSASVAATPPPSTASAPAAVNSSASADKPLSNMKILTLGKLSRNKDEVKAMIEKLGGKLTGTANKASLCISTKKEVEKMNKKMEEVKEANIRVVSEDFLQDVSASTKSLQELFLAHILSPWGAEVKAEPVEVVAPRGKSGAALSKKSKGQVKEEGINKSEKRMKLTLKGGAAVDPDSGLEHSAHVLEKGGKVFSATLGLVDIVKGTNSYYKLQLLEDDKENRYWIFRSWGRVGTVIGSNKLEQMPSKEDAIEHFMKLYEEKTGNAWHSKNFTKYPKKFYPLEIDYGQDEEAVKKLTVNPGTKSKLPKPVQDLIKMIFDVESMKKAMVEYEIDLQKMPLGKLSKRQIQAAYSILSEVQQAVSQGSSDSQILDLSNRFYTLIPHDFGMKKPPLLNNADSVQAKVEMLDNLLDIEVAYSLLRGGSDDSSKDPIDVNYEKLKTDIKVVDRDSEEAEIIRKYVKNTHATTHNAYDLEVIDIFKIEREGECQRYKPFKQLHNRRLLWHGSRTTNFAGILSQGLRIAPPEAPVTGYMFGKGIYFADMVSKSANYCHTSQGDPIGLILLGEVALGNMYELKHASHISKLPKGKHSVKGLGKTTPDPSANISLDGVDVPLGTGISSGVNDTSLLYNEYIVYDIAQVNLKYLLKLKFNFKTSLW

SMILES: Cn1ncnc1[C@H]1c2n[nH]c(=O)c3cc(F)cc(c23)N[C@@H]1c1ccc(F)cc1 [Talazoparib]
- single agent effective dose (BRCA mutant animal model; BRCA mutated model): 0.33 mg/kg

SMILES: O=C(c1cc(Cc2n[nH]c(=O)c3ccccc23)ccc1F)N1CCN(C(=O)C2CC2)CC1 [Olaparib]
- IC50 ([1]; read-out: IC50, proliferation of NCI-H209 cells): 2180 nM
- single effective dose (BRCA mutant animal model; BRCA mutant animal model study): 50-100 mg/kg per day
- effect on TMZ-related hematological toxicity (recurrent glioblastoma): exacerbate TMZ-related hematological toxicity

SMILES: O=C(c1cc(Cn2c(=O)[nH]c(=O)c3c(F)cccc32)ccc1F)N1CCN(c2ncccn2)CC1 [IMP4297, 5-fluoro-1-(4-fluoro-3-(4-(pyrimidin-2-yl)piperazine-1-carbonyl)benzyl)quinazoline-2,4(1H,3H)-dione]
- IC50 [1, 9]: 113 nM
- T/C (%) ([2]; IMP4297 10 mpk p.o. QD x 21 D): 79.12** %
- TGI (%) ([2]; IMP4297 10 mpk p.o. QD x 21 D): 18.80** %
- body weight reduction during the experiment [2]: no body weight reduction
- inhibitory effect on tumor growth versus vehicle ([2]; single agent: TMZ 3 mg/kg, IMP4297 10 mg/kg): no significant inhibitory effect on tumor growth
- therapeutic window [3]: 8 fold
- therapeutic window (cancer [4]): 6 fold
- effective dose as a single agent [5]: 2.5-20 mg/kg per day
- clinically effective dose as a single agent (cancer [6]; cancer patients): 20 to 120 mg
- RP2D as a single agent (cancer [6]): 100 mg
- PARP1 trapping in nuclear chromosome (PARP1 [7]; 0.1-10 μM in HCT116 cells in the presence of TMZ): good PARP1 trapping
- grey density value of PARP1 band (PARP1 [7]; IMP4297 0.1 μmol/L in the presence of TMZ 1 mM): 398
- grey density value of PARP1 band (PARP1 [7]; IMP4297 0.1 μmol/L, vehicle (no TMZ)): 141
- grey density value of PARP1 band (PARP1 [7]; IMP4297 10 μmol/L in the presence of TMZ 1 mM): 446
- grey density value of PARP1 band (PARP1 [7]; IMP4297 10 μmol/L, vehicle (no TMZ)): 182
- grey density value of PARP1 band (PARP1 [8]; 0.01 μmol/L drug, DU145): 3667.63
- grey density value of PARP1 band (PARP1 [8]; 0.1 μmol/L drug, DU145): 4932.39
- grey density value of PARP1 band (PARP1 [8]; 1 μmol/L drug, DU145): 6036.79
- grey density value of PARP1 band (PARP1 [8]; 10 μmol/L drug, DU145): 5302.8
- PARP1 trapping in nuclear chromosome (PARP1 [8]; 0.01-10 μM, DU145 cells treated with MMS): good PARP1 trapping
- PARP1 trapping compared with Olaparib (PARP1 [8]; same concentrations and conditions, DU145): stronger PARP1 trapping in nuclear chromosome than Olaparib

SMILES: Cn1nnc2c(C(N)=O)ncn2c1=O [TMZ, Temozolomide, reference compound]
- IC50 [1, 9]: > 100000 nM
- T/C (%) ([2]; TMZ 3 mg/kg p.o. QD x 21 D): 64.03**** %
- TGI (%) ([2]; TMZ 3 mg/kg p.o. QD x 21 D): 31.66**** %
- Average weight change (%) ([2]; TMZ 3 mg/kg p.o. QD x 21 D, versus initial weight): 7.99 ± 5.21%
- body weight reduction during the experiment [2]: no body weight reduction
